Measurements from patent publication US20110190249A1, “THERAPEUTIC METHODS AND USES OF SAPOGENINS AND THEIR DERIVATIVES” (PHYTOPHARM PLC, priority 2002, published 2011).

Key:
[1] = system: rat primary cortical neurones; experiment: Prevention of glutamate-induced neurodegeneration (LDH release), pre-treatment; type: cell-based; details: 30 nM, given 24 h before glutamate; LDH 24 h after glutamate; control = 100
Procedure: The objective of this study was to examine the effects of sarsasapogenin, episarsasapogenin cathylate, episarsasapogenin, epismilagenin and smilagenin on the survival of rat primary cortical neurones exposed to glutamate, which is known to induce neuro degeneration.
Rat cortical neurones were cultured for 10 days; at day 10 the medium was changed to a serum-free defined medium. On day 12, 24 hours before glutamate exposure, cultures were washed and medium was replaced with fresh medium containing positive control (β-oestradiol), test compounds (sarsasapogenin, episarsasapogenin cathylate, episarsasapogenin, epismilagenin and smilagenin) or vehicle control (DMSO, 0.25%) or diosgenin as negative control.
On day 13, cultures were exposed to glutamate. After the incubation period, the cultures were washed with and placed in fresh medium, supplemented with relevant compounds or vehicle to evaluate their protective effects, 24 h after glutamate exposure.
(§1) Neuronal cell survival was evaluated by measuring lactate dehydrogenase (LDH) activity released in the media 24 h after test compound treatment or glutamate+test compound exposure, using the CytoTox 96 non-radioactive kit and quantitated by measuring wavelength absorbance at 450 nm.

[2] = system: rat primary cortical neurones; experiment: Reversal of glutamate-induced neurodegeneration (LDH), treatment after glutamate exposure; type: cell-based; details: LDH after 24 h, control = 100
Procedure: as §1
As above mentioned, exposure of rat primary cortical cultures to glutamate (100 μM; 10 min) caused an increase in lactate dehydrogenase (LDH) activity measured after 24 h, indicating a significant neurodegeneration.

[3] = system: caspase-3; experiment: Glutamate induced caspase 3 activity in cortical neurones; type: cell-based, rat; details: 300 nM for 6 h after glutamate 100 microM 10 min; glutamate alone 131
Procedure: The objective of this study was to examine the anti-apoptotic effect of smilagenin on the caspase-3 activity, a marker of apoptosis, in rat primary cortical cultures exposed to glutamate
Rat cortical neurones were cultured for 6 days. At day 6, glutamate (100 microM, 10 min) was added. Then the cultures were washed and medium was replaced with fresh medium containing smilagenin or vehicle control (DMSO, 0.25%) for 6 h. After 6 h treatment, apoptosis was evaluated by measuring caspase 3, activity. Caspase 3 activity was detected by the cleavage of p-nitroaniline from a colorimetric caspase-3 substrate, acetyl-Asp-Glu-Val-Asp p-nitroanilide. […] has a high absorbance at 405 nm. Relative caspase-3 activity was measured as optical density. In addition the relative activity of caspase-3 was standardised to protein concentration of the sample, which was also measured as an optical density (Du et al, J Neurochem., 69, 1382-1388, 1997; Sawada et al, Faseb J., 14, 1202-1214, 2000).

[4] = system: rat mesencephalic dopaminergic neurones; experiment: Pre-treatment of dopaminergic neurones before MPP+ exposure (neuronal survival); type: cell-based; details: pre-treatment 30 nM; MPP+ 2 μM; MPP+ alone 55 ± 3
Excerpt: Smilagenin and sarsasapogenin prevent the neurodegeneration caused by exposure to the neurotoxin, 1-methyl-4-phenylpyridinium (MPP^+) in rat mesencephalic dopaminergic neurones; a model of Parkinson's disease in vitro.
Glial cell line-derived neurotrophic factor (GDNF) and brain-derived neurotrophic factor (BDNF), molecules that are involved in neuronal growth, were used as positive controls.

[5] = system: rat mesencephalic dopaminergic neurones; experiment: Treatment of dopaminergic neurones after MPP+ exposure (survival, neurites); type: cell-based; details: MPP+ 2 μM
Excerpt: Smilagenin and sarsasapogenin also reverse the neurodegeneration caused by exposure to the neurotoxin 1-methyl-4-phenylpyridinium (MPP^+) in rat mesencephalic dopaminergic neurones; a model of Parkinson's disease in vitro.
Glial cell line-derived neurotrophic factor (GDNF) and brain-derived neurotrophic factor (BDNF), molecules that are involved in neuronal growth, and 17β-oestradiol were used as positive controls. Treatment with smilagenin and sarsasapogenin produced a significant increase in the neuronal survival compared to neurones exposed to MPP^+ alone (Table 8).
Exposure to MPP^+ caused not only a significant decrease in dopaminergic number but also in the percentage of neurites.

[6] = system: rat primary spinal motor neurones; experiment: Glutamate-induced neurodegeneration in spinal motor neurones (LDH); type: cell-based; details: control 100 ± 1
Procedure: The objective of this study was to examine the effects of sarsasapogenin and smilagenin on the survival of rat primary spinal motor neurones exposed to glutamate, which is known to induce neurodegeneration in this model of motor neurodegeneration.
Rat motor neurones were prepared according to the method described by (Martinou et al, Neuron, 8, 737-744, 1992). On day 10, medium was removed and the cultures were exposed to glutamate (4 microM) for 10 min at 37° C. in defined medium. After the glutamate exposure, cultures were washed with Dulbecco modified Eagle medium at 37° C. then placed in fresh culture medium containing test compounds. After 48 h, the extent of spinal motor neurone degeneration was determined by measuring the amount of lactate dehydrogenase (LDH) released into the culture medium as above.

[7] = system: BDNF; experiment: BDNF levels in aged rats; type: in vivo, rat; details: aged rats treated 3 months; aged untreated 1.205±0.219, young 1.647±0.277
Procedure: Aged Sprague-Dawley rats aged were divided into different groups, one control and groups treated for 2-3 months with either sarsasapogenin, episarsasapogenin cathylate or smilagenin (18 mg kg^−1 day^−1, n=10). A control group (n=14) of untreated young rats was also included in the study. The daily dose of drug was mixed in a minimum amount of food and was administered every morning separately to each rat.

[8] = system: SOD-1 transgenic mice; experiment: Survival and behaviour of SOD-1 mice (ALS model); type: in vivo; details: SOD mouse
Excerpt: Amyotrophic lateral sclerosis (ALS) is a progressive fatal neurodegenerative disorder that causes motor neurone degeneration, […], paralysis and death. The cause of this disease is heterogeneous: mutations in the Cu/Zn superoxide dismutase (SOD-1) gene is responsible for some forms of human ALS. Animal models of this disease include the SOD-1 transgenic mice over-expressing SOD-1 gene and the progressive motor neuropathy (pmn, a model of Charcot-Marie-Tooth) mice.

C[C@@H]1CC[C@@]2(OC1)O[C@H]1C[C@H]3[C@@H]4CC[C@@H]5C[C@@H](O)CC[C@]5(C)[C@H]4CC[C@]3(C)[C@H]1[C@@H]2C [smilagenin]
Prevention of glutamate-induced neurodegeneration, Mean ± s.e.m (%) [1]: 91 ± 4%
Cortical neurones previously exposed to glutamate, Mean ± s.e.m (%) ([2]; 3 nM after glutamate 100 μM 10 min): 109 ± 6%
Cortical neurones previously exposed to glutamate, Mean ± s.e.m (%) ([2]; 30 nM after glutamate 100 μM 10 min): 104 ± 1%
Caspase activity (% of control) [3]: 105 % of control
Dopaminergic neurones after MPP+ exposure (survival), Mean ± s.e.m (%) [4]: 98 ± 4%
Percentage of neurites in dopaminergic neurones after MPP+ exposure, Mean ± s.e.m (%) ([5]; 0.03 nM, control 41 ± 4, MPP+ alone 27 ± 5): 41 ± 4%
Dopaminergic neurones after MPP+ exposure (survival), Mean ± s.e.m (%) ([5]; treatment 0.03 nM, MPP+ alone 76 ± 4): 111 ± 6%
Glutamate-induced neurodegeneration in spinal motor neurones, Mean ± s.e.m (%) ([6]; 0.03 nM for 48 h after glutamate 4 microM 10 min): 128 ± 4%
Glutamate-induced neurodegeneration in spinal motor neurones, Mean ± s.e.m (%) ([6]; 3 nM for 48 h after glutamate 4 microM 10 min): 154 ± 1%
Glutamate-induced neurodegeneration in spinal motor neurones, Mean ± s.e.m (%) ([6]; 300 nM for 48 h after glutamate 4 microM 10 min): 144 ± 4%
BDNF levels [7]: 1.342±0.07 ng/g tissue
Behavioural deficits ([8]; oral administration): improve the behavioural deficits
Lifespan (survival) ([8]; oral administration (FIG. 5)): increase the lifespan
